For the test, the system named is IL-12. As to the kind of experiment: Human in vitro assay: inhibition of IL-12 production in IFNγ/LPS- or IFNγ/SAC-stimulated human PBMC or THP-1 cells (ELISA). The test is classed as cell-based. Particulars: read-out: IC50 Range (representative in vitro IC50 data). Summed up: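 PBMC (5×10^5 cells/well) primed with IFNγ 30 U/mL for 22 h then LPS 1 μg/mL, or IFNγ 100 U/mL then SAC 0.01%; THP-1 primed with IFNγ 100 U/mL for 22 h then SAC 0.025%, with compound in 0.25% DMSO. Supernatant IL-12 p70/p40 measured by sandwich ELISA after 18 h; IC50 derived; viability by MTS.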

Our source for the IC50 values is patent publication US20060223996A1, “IL-12 modulatory compounds” (Synta Pharmaceuticals Corp., priority 2004, published 2006).

In general, IC50 refers to the point on the concentration scale where inhibition reaches its midpoint.

Take `CCCCN(C)C(=O)CNc1cc(C(=O)Nc2ccc3[nH]c(C)c(C)c3c2)nc(N2CCOCC2)n1` [Compound 107, 6-{[(Butyl-methyl-carbamoyl)-methyl]-amino}-2-morpholin-4-yl-pyrimidine-4-carboxylic acid (2,3-dimethyl-1H-indol-5-yl)-amide]: the IC50 was < 1 µM.
Under `Cc1[nH]c2ccc(NC(=O)c3cc(NCC(=O)N4CCCC4)nc(N4CCOCC4)n3)cc2c1C` [Compound 108, 2-Morpholin-4-yl-6-(2-oxo-2-pyrrolidin-1-yl-ethylamino)-pyrimidine-4-carboxylic acid (2,3-dimethyl-1H-indol-5-yl)-amide] stands < 1 µM.
Under `Cc1[nH]c2ccc(NC(=O)c3cc(NCC(=O)N4CCCCC4)nc(N4CCOCC4)n3)cc2c1C` [Compound 109, 2-Morpholin-4-yl-6-(2-oxo-2-piperidin-1-yl-ethylamino)-pyrimidine-4-carboxylic acid (2,3-dimethyl-1H-indol-5-yl)-amide] stands < 1 µM; under `Cc1[nH]c2ccc(NC(=O)c3cc(NCC(=O)NC4CCCC4)nc(N4CCOCC4)n3)cc2c1C` [Compound 110, 6-(Cyclopentylcarbamoylmethyl-amino)-2-morpholin-4-yl-pyrimidine-4-carboxylic acid (2,3-dimethyl-1H-indol-5-yl)-amide], < 1 µM; under `Cc1cccc(NC(=O)CNc2cc(C(=O)Nc3ccc4[nH]c(C)c(C)c4c3)nc(N3CCOCC3)n2)c1` [Compound 111, 2-Morpholin-4-yl-6-[(m-tolylcarbamoyl-methyl)-amino]-pyrimidine-4-carboxylic acid (2,3-dimethyl-1H-indol-5-yl)-amide], < 1 µM.
In the case of `Cc1[nH]c2ccc(NC(=O)c3cc(NCC(=O)N(C)C)nc(N4CCOCC4)n3)cc2c1C` [Compound 112, 6-(Dimethylcarbamoylmethyl-amino)-2-morpholin-4-yl-pyrimidine-4-carboxylic acid (2,3-dimethyl-1H-indol-5-yl)-amide], the IC50 is < 1 µM.
With `Cc1[nH]c2ccc(NC(=O)c3cc(N(C)CC(=O)N4CCCCC4)nc(N4CCOCC4)n3)cc2c1C` [Compound 113, 6-[Methyl-(2-oxo-2-piperidin-1-yl-ethyl)-amino]-2-morpholin-4-yl-pyrimidine-4-carboxylic acid (2,3-dimethyl-1H-indol-5-yl)-amide] the figure was < 1 µM.
Under `Cc1[nH]c2ccc(NC(=O)c3cc(N(C)CC(=O)N4CCOCC4)nc(N4CCOCC4)n3)cc2c1C` [Compound 114, 6-[Methyl-(2-morpholin-4-yl-2-oxo-ethyl)-amino]-2-morpholin-4-yl-pyrimidine-4-carboxylic acid (2,3-dimethyl-1H-indol-5-yl)-amide] stands < 1 µM.
Under `O=C(Nc1cccc(-n2cccn2)c1)c1cc(OCC(=O)N2CCCCC2)nc(N2CCOCC2)n1` [Compound 115, 2-Morpholin-4-yl-6-(2-oxo-2-piperidin-1-yl-ethoxy)-pyrimidine-4-carboxylic acid (3-pyrazol-1-yl-phenyl)-amide] stands < 1 µM.
`CN(C)c1cccc(NC(=O)c2cc(N(C)CC(=O)N3CCCCC3)nc(N3CCOCC3)n2)c1` [Compound 116, 6-[Methyl-(2-oxo-2-piperidin-1-yl-ethyl)-amino]-2-morpholin-4-yl-pyrimidine-4-carboxylic acid (3-dimethylamino-phenyl)-amide]: the IC50 was < 1 µM.
Under `Cc1[nH]c2ccc(NC(=O)c3cc(N(C)CC(N)=O)nc(N4CCOCC4)n3)cc2c1C` [Compound 117, 6-(Carbamoylmethyl-methyl-amino)-2-morpholin-4-yl-pyrimidine-4-carboxylic acid (2,3-dimethyl-1H-indol-5-yl)-amide] stands < 1 µM; under `O=C(Nc1cccc(Br)c1)Nc1cc(N2CCOCC2)nc(OCCN2CCOCC2)n1` [Compound 118], < 1 µM.
With `O=C(Nc1ccc(Cl)c(Cl)c1)Nc1cc(N2CCOCC2)nc(OCCN2CCOCC2)n1` [Compound 119, 1-(3,4-Dichloro-phenyl)-3-[6-morpholin-4-yl-2-(2-morpholin-4-yl-ethoxy)-pyrimidin-4-yl]-urea] the figure was ≥ 1 µM.
